Results taken from the NIST ThermoML archive (doi:10.1016/j.jct.2013.01.009).
Several values for one entry are separate records, joined by “and”; a condition that tells them apart may be missing. Equal values may be shown once. Numbers after ± are expanded uncertainties.

Assays:
[1] = molar enthalpy of vaporization or sublimation; conditions: 298.15 K; Liquid; Static calorimetry
[2] = Liquid, Closed cell (Static) method
[3] = molar heat capacity at constant pressure; conditions: 101.33 kPa, Liquid
[4] = 273.4 K, Large sample (1 g) DSC
[5] = 278.5 K, Large sample (1 g) DSC
[6] = 283.6 K, Large sample (1 g) DSC
[7] = 288.7 K, Large sample (1 g) DSC
[8] = 293.8 K, Large sample (1 g) DSC
[9] = 298.9 K, Large sample (1 g) DSC
[10] = 309.1 K, Large sample (1 g) DSC
[11] = 314.2 K, Large sample (1 g) DSC
[12] = 319.4 K, Large sample (1 g) DSC
[13] = 324.5 K, Large sample (1 g) DSC
[14] = 329.6 K, Large sample (1 g) DSC
[15] = 334.7 K, Large sample (1 g) DSC
[16] = 339.8 K, Large sample (1 g) DSC
[17] = 344.9 K, Large sample (1 g) DSC
[18] = 355.1 K, Large sample (1 g) DSC

SMILES | vapor or sublimation pressure ([2]; 273.65 K) | vapor or sublimation pressure ([2]; 273.66 K) | vapor or sublimation pressure ([2]; 278.16 K) | vapor or sublimation pressure ([2]; 283.15 K) | vapor or sublimation pressure ([2]; 288.15 K) | vapor or sublimation pressure ([2]; 293.15 K) | vapor or sublimation pressure ([2]; 298.15 K) | vapor or sublimation pressure ([2]; 303.15 K) | molar heat capacity at constant pressure [3, 4] | molar heat capacity at constant pressure [3, 5] | molar heat capacity at constant pressure [3, 6] | molar heat capacity at constant pressure [3, 7] | molar heat capacity at constant pressure [3, 8] | molar heat capacity at constant pressure [3, 9] | molar heat capacity at constant pressure ([3]; 304 K, Large sample (1 g) DSC) | molar heat capacity at constant pressure [3, 10] | molar heat capacity at constant pressure [3, 11] | molar heat capacity at constant pressure [3, 12] | molar heat capacity at constant pressure [3, 13] | molar heat capacity at constant pressure [3, 14] | also measured
CC1=CC(=O)[C@H]2C[C@@H]1C2(C)C [(-)-verbenone] | 0.00181 ± 0.00015 kPa and 0.00183 ± 0.00015 kPa | 0.00181 ± 0.00015 kPa | 0.00276 ± 0.00017 kPa and 0.00277 ± 0.00017 kPa | 0.00436 ± 0.00021 kPa and 0.00437 ± 0.00021 kPa | 0.00676 ± 0.00028 kPa and 0.00678 ± 0.00028 kPa and 0.00675 ± 0.00028 kPa | 0.01031 ± 0.00042 kPa | 0.01545 ± 0.00056 kPa and 0.01546 ± 0.00056 kPa and 0.01547 ± 0.00056 kPa | 0.02273 ± 0.00071 kPa and 0.02278 ± 0.00071 kPa and 0.02281 ± 0.00071 kPa | 258.83 ± 4.5 J/K/mol | 260.99 ± 4.5 J/K/mol | 262.32 ± 4.6 J/K/mol | 264.07 ± 4.6 J/K/mol | 266.73 ± 4.7 J/K/mol | 269.39 ± 4.7 J/K/mol | 270.47 ± 4.7 J/K/mol | 273.05 ± 4.7 J/K/mol | 275.62 ± 4.7 J/K/mol | 276.87 ± 4.8 J/K/mol | 279.45 ± 4.8 J/K/mol | 281.69 ± 4.9 J/K/mol | molar enthalpy [1]: 14.1 ± 0.359 kcal/mol; vapor or sublimation pressure ([2]; 278.15 K): 0.00278 ± 0.00017 kPa; vapor or sublimation pressure ([2]; 293.16 K): 0.01032 ± 0.00042 kPa and 0.01035 ± 0.00042 kPa; vapor or sublimation pressure ([2]; 308.16 K): 0.03304 ± 0.00092 kPa and 0.03307 ± 0.00092 kPa and 0.03309 ± 0.00092 kPa; molar heat capacity at constant pressure ([3]; 298.15 K, Drop calorimetry): 270.55 ± 6.3 J/K/mol; molar heat capacity at constant pressure [3, 15]: 284.69 ± 4.9 J/K/mol; molar heat capacity at constant pressure [3, 16]: 286.93 ± 5 J/K/mol; molar heat capacity at constant pressure [3, 17]: 289.68 ± 5 J/K/mol; molar heat capacity at constant pressure ([3]; 350 K, Large sample (1 g) DSC): 292 ± 5.1 J/K/mol; molar heat capacity at constant pressure [3, 18]: 294.42 ± 5.1 J/K/mol
CC1=CC[C@H]2C[C@@H]1C2(C)C [(S)-2-pinene] | 0.1164 ± 0.0027 kPa | 0.1164 ± 0.0027 kPa | 0.1615 ± 0.0033 kPa and 0.1614 ± 0.0033 kPa | 0.2288 ± 0.0045 kPa | 0.3195 ± 0.0061 kPa and 0.3196 ± 0.0061 kPa | 0.4403 ± 0.0082 kPa and 0.4404 ± 0.0082 kPa | 0.599 ± 0.011 kPa and 0.5991 ± 0.011 kPa | 0.8053 ± 0.015 kPa | 239.62 ± 4.2 J/K/mol | 242.37 ± 4.2 J/K/mol | 244.61 ± 4.2 J/K/mol | 247.11 ± 4.2 J/K/mol | 249.27 ± 4.3 J/K/mol | 253.09 ± 4.4 J/K/mol | 255.34 ± 4.4 J/K/mol | 257.83 ± 4.5 J/K/mol | 260.41 ± 4.5 J/K/mol | 262.57 ± 4.6 J/K/mol | 266.15 ± 4.6 J/K/mol | 268.97 ± 4.7 J/K/mol | vapor or sublimation pressure ([2]; 238.19 K): 0.0053 ± 0.00023 kPa; vapor or sublimation pressure ([2]; 243.2 K): 0.00874 ± 0.00035 kPa and 0.00875 ± 0.00036 kPa; vapor or sublimation pressure ([2]; 253.19 K): 0.02209 ± 0.00069 kPa and 0.0221 ± 0.00069 kPa; vapor or sublimation pressure ([2]; 258.2 K): 0.03413 ± 0.00094 kPa and 0.03415 ± 0.00094 kPa and 0.03412 ± 0.00094 kPa; vapor or sublimation pressure ([2]; 263.19 K): 0.05172 ± 0.0013 kPa; vapor or sublimation pressure ([2]; 268.19 K): 0.07688 ± 0.0019 kPa and 0.07689 ± 0.0019 kPa and 0.07691 ± 0.0019 kPa; vapor or sublimation pressure ([2]; 303.16 K): 0.8056 ± 0.015 kPa and 0.8057 ± 0.015 kPa; vapor or sublimation pressure ([2]; 308.17 K): 1.071 ± 0.019 kPa; vapor or sublimation pressure ([2]; 308.18 K): 1.071 ± 0.019 kPa; molar heat capacity at constant pressure [3, 15]: 272.3 ± 4.7 J/K/mol; molar heat capacity at constant pressure [3, 16]: 274.88 ± 4.7 J/K/mol; molar heat capacity at constant pressure [3, 17]: 278.7 ± 4.8 J/K/mol; molar heat capacity at constant pressure ([3]; 350 K, Large sample (1 g) DSC): 282.11 ± 4.9 J/K/mol; molar heat capacity at constant pressure [3, 18]: 284.44 ± 4.9 J/K/mol
